Patent publication US8722849B2, “Polypeptides” (Novo Nordisk A/S, priority 2011, dated 2014)
Values after ≈ are worked out from the molar mass of the structure shown. Read-outs that look alike come from different tables or passages of the source. Starred links: 1 amine or outer side, 2 acyl side, 3 side chain; linkers in the order of their positions; H or OH if unused. Positions of bridges follow the written chain, without caps; N, C: chain ends. Residues, ends and D or L forms follow the SMILES beside them. *: point of attachment. C20 diacid = O=C(O)CCCCCCCCCCCCCCCCCCC(=O)*; γGlu = O=C(O)[C@H](CCC(=O)[*:2])N[*:1]

Key:
[1] = Assay (IV) determination of solubility; type: physicochemical
Summary of the method: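 Polypeptide in water (~500 nmol/ml stock) was mixed 1:1 with 100 mM buffers from pH 3.0 to 8.0 (glycylglycine pH 3.0–5.0; bistrispropane pH 6.0–8.0). After 18 hours at room temperature, samples were centrifuged and the polypeptide remaining in solution was quantified by HPLC.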

[2] = target: T1, human calcitonin receptor (Homo sapiens, UniProt P30988); assay: Assay (II)a functional CRE-luciferase assay, human calcitonin receptor; type: cell-based; conditions: Table 7; human calcitonin (CTa) receptor
T1 construct: expressed in transfected cells; host or cells: BHK570
T1 sequence (P30988 25-474): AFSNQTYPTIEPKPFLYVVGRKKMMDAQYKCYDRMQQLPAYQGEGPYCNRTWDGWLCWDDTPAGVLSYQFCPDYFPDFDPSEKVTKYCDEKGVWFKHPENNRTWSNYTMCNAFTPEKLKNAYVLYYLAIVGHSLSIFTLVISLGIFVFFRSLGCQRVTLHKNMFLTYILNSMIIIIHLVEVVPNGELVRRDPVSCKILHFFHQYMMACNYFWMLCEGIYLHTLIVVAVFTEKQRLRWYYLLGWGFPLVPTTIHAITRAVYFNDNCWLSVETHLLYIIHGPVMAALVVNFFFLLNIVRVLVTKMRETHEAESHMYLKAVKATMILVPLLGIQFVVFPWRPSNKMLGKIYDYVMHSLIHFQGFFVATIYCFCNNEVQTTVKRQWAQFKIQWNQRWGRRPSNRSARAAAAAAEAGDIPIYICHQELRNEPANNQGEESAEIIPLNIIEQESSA
Text: (§1) 1. Luciferase Assay Outline
(§2) Activation of calcitonin and amylin (coexpression of calcitonin receptor and receptor activity modifying proteins (RAMP)) receptors lead to increased intracellular concentrations of cAMP. Consequently, transcription is activated by promoters containing multiple copies of the cAMP response element (CRE). It is thus possible to measure amylin activity by the use of a CRE luciferase reporter gene introduced into BHK cells also expressing calcitonin or amylin receptors.
(§3) A BHK570 cell line was stably transfected with the human calcitonin receptor and a CRE-responsive luciferase reporter gene. The cell line was further transfected with RAMP-3, using standard methods. This turns the calcitonin receptor into an amylin 3(a) receptor. Methotrexate, Neomycin, and Hygromycin are selection markers for luciferase, the calcitonin receptor, and RAMP-3, respectively.
(§4) To perform activity assays, BHK calcitonin (a) receptor- or amylin 3(a)-receptor/CRE-luc cells were seeded in white 96 well culture plates at a density of about 20.000 cells/well. […] Further, 50 μl/well of standard or sample in assay buffer were added. After 3 hours incubation at 37° C. and 5% CO2, the assay medium with standard or sample were removed and replaced by 100 μl/well PBS. Further, 100 μl/well LucLite™ was added. The plates were sealed and incubated at room temperature for 30 minutes. Finally, luminescence was measured on a TopCounter (Packard) in SPC (single photon counting) mode.

[3] = target: T2, human amylin receptor (amylin 3(a) receptor: human calcitonin receptor + RAMP-3) (Homo sapiens, UniProt O60896+P30988); assay: Assay (II)a functional CRE-luciferase assay, human amylin receptor; type: cell-based
T2 construct: expressed in transfected cells; host or cells: BHK570
T2 sequence (P30988 25-474): T1 sequence (P30988 25-474)
T2 sequence (O60896 24-148 partner): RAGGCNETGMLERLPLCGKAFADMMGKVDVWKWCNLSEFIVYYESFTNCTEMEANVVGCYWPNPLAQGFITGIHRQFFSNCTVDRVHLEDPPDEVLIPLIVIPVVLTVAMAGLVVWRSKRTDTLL
Text: as §1, §2, §3, §4

[4] = bistrispropane buffer, pH 7.5, pH 7.5, read-out: Solubility pH 7.5
[5] = bistrispropane buffer, pH 8, pH 8.0, read-out: Solubility pH 8.0
[6] = glycylglycine buffer, pH 3, pH 3.0, read-out: Solubility pH 3.0
[7] = glycylglycine buffer, pH 4, pH 4.0, read-out: Solubility pH 4.0

| SMILES | solubility at 18 h ([1]; bistrispropane buffer, pH 6, pH 6.0, read-out: Solubility pH 6.0) [µM] | solubility at 18 h ([1]; bistrispropane buffer, pH 6.5, pH 6.5, read-out: Solubility pH 6.5) [µM] | solubility at 18 h ([1]; bistrispropane buffer, pH 7, pH 7.0, read-out: Solubility pH 7.0) [µM] | solubility at 18 h [1, 4] [µM] | solubility at 18 h [1, 5] [µM] | solubility at 18 h [1, 6] [µM] | solubility at 18 h [1, 7] [µM] | solubility at 18 h ([1]; glycylglycine buffer, pH 5, pH 5.0, read-out: Solubility pH 5.0) [µM] | EC50 [2] [nM] | EC50 ([3]; Table 6, human amylin receptor) [nM] | solubility at 18 h ([1]; glycylglycine buffer, pH 4, pH 4.0, 18 hours at room temperature, Table 2, read-out: Solubility pH 4.0) [µM] | solubility at 18 h ([1]; pH 5.0, read-out: Solubility pH 5.0) [µM] | solubility at 18 h ([1]; pH 6.0, read-out: Solubility pH 6.0) [µM] | solubility at 18 h ([1]; pH 6.5, read-out: Solubility pH 6.5) [µM] | solubility at 18 h ([1]; pH 7.0, read-out: Solubility pH 7.0) [µM] | EC50 ([3]; Table 2, BHK amylin 3(a)-receptor/CRE-luc cells) [nM] |
| --- | --- | --- | --- | --- | --- | --- | --- | --- | --- | --- | --- | --- | --- | --- | --- | --- |
| CC(C)C[C@H](NC(=O)[C@H](CCCNC(=N)N)NC(=O)[C@H](CCC(N)=O)NC(=O)[C@@H](NC(=O)[C@H](C)NC(=O)[C@@H]1CSSC[C@H](NC(=O)[C@H](Cc2c[nH]cn2)NC(=O)CC[C@H](NC(=O)CCCCCCCCCCCCCCCCCCC(=O)O)C(=O)O)C(=O)N[C@@H](CC(N)=O)C(=O)N[C@@H]([C@@H](C)O)C(=O)N[C@@H](C)C(=O)N[C@@H]([C@@H](C)O)C(=O)N1)[C@@H](C)O)C(=O)N[C@@H](C)C(=O)N[C@@H](CCC(=O)O)C(=O)N[C@@H](Cc1ccccc1)C(=O)N[C@@H](CC(C)C)C(=O)N[C@@H](Cc1c[nH]cn1)C(=O)N[C@@H](CCCNC(=N)N)C(=O)N[C@@H](CO)C(=O)N[C@@H](CO)C(=O)N[C@@H](CC(N)=O)C(=O)N[C@@H](CCC(=O)O)C(=O)N[C@@H](Cc1ccccc1)C(=O)NCC(=O)N[C@@H](C)C(=O)N[C@@H](CCCNC(=N)N)C(=O)N[C@@H](CC(C)C)C(=O)N[C@@H](CO)C(=O)N[C@@H](CO)C(=O)N[C@H](C(=O)N[C@@H](CC(N)=O)C(=O)N[C@H](C(=O)NCC(=O)N[C@@H](CO)C(=O)N[C@@H](CC(N)=O)C(=O)N[C@H](C(=O)N[C@@H](Cc1ccc(O)cc1)C(N)=O)[C@@H](C)O)C(C)C)[C@@H](C)O [Example 8, N-alpha-[(S)-4-Carboxy-4-(19-carboxynonadecanoylamino)butyryl]-[His1,Glu14,His17,Arg18,Glu22,Ala25,Arg26,Ser28,Ser29]-pramlintide] ({C20 diacid-γGlu}-HCNTATCATQRLAEFLHRSSNEFGARLSSTNVGSNTY-NH2; disulfide 2-7 (inferred)) | 1 (≈ 4.5 µg/mL) | 1 (≈ 4.5 µg/mL) | 1 (≈ 4.5 µg/mL) | 1 (≈ 4.5 µg/mL) | 3 (≈ 13.5 µg/mL) | 178 (≈ 800 µg/mL) | 93 (≈ 418 µg/mL) | 2 (≈ 8.99 µg/mL) | 0.279 | 0.127 | – | – | – | – | – | – |
| CC[C@H](C)[C@H](NC(=O)[C@@H]1CCCN1C(=O)CNC(=O)[C@H](Cc1ccccc1)NC(=O)[C@H](CC(N)=O)NC(=O)[C@H](CC(N)=O)NC(=O)[C@H](CO)NC(=O)[C@H](CO)NC(=O)[C@H](CCCNC(=N)N)NC(=O)[C@@H](NC(=O)[C@H](CC(C)C)NC(=O)[C@H](Cc1ccccc1)NC(=O)[C@H](CCC(=O)O)NC(=O)[C@H](C)NC(=O)[C@H](CC(C)C)NC(=O)[C@H](CCCNC(=N)N)NC(=O)[C@H](CCC(N)=O)NC(=O)[C@@H](NC(=O)[C@H](C)NC(=O)[C@@H]1CSSC[C@H](NC(=O)[C@H](Cc2cnc[nH]2)NC(=O)CC[C@H](NC(=O)CCCCCCCCCCCCCCCCCCC(=O)O)C(=O)O)C(=O)N[C@@H](CC(N)=O)C(=O)N[C@@H]([C@@H](C)O)C(=O)N[C@@H](C)C(=O)N[C@@H]([C@@H](C)O)C(=O)N1)[C@@H](C)O)C(C)C)C(=O)N[C@@H](CC(C)C)C(=O)N1CCC[C@H]1C(=O)N1CCC[C@H]1C(=O)N[C@H](C(=O)N[C@@H](CC(N)=O)C(=O)N[C@H](C(=O)NCC(=O)N[C@@H](CO)C(=O)N[C@@H](CC(N)=O)C(=O)N[C@H](C(=O)N[C@@H](Cc1ccc(O)cc1)C(N)=O)[C@@H](C)O)C(C)C)[C@@H](C)O [Example 15, N-alpha-[(S)-4-Carboxy-4-(19-carboxynonadecanoylamino)butyryl]-[His1,Glu14,Arg18]-pramlintide] ({C20 diacid-γGlu}-HCNTATCATQRLAEFLVRSSNNFGPILPPTNVGSNTY-NH2; disulfide 2-7) | – | – | – | 56 (≈ 249 µg/mL) | 134 (≈ 596 µg/mL) | > 200 | > 200 | – | 0.125 | – | > 200 | 10 (≈ 44.5 µg/mL) | 1 (≈ 4.45 µg/mL) | 1 (≈ 4.45 µg/mL) | 10 (≈ 44.5 µg/mL) | 0.083 |
